Entries after “also recorded” stand apart in the source; their conditions may differ.
Assays:
Assay type in all cases: in vivo, human
[1] = system: patients having hormone refractory prostate cancer (HRPCa); assay: Health-related quality-adjusted time-to-progression (QATTP), Kaplan-Meier product limit analysis; conditions: for health-related QATTP, difference between the atrasentan treatment groups: 10 mg vs 2.5 mg
Method: The health-related QATTP model used for the practice of this invention expresses progression-free time as an equally preferable amount of time spent in full health. This is achieved by using patient-reported health-related QoL, as measured for the duration of observation or progression-free interval, to weight progression-free time. […] Patients received treatment with either 10 mg (N=89) or 2.5 mg (N=95) of atrasentan or placebo (N=104) until experiencing a clinical event indicative of disease progression as defined by palliative opiate treatment of new bone or visceral pain, palliative radiation treatment of new bone pain, or new tumor growth symptoms requiring intervention or treatment with chemotherapy. Patient-reported health-related QoL data were collected with the EORTC QLQ-30 and the FACT-G and FACT-P, both of which were administered at baseline, at six week intervals and at the patient's final visit. A patient's transformed domain score and total score from both the EORTC QLQ-30 and FACT were used to weight the time-to-progression outcome data. Transformed domain scores ranged between 0 and 1, so the reported health-related QATTP outcome was never larger than actual time to progression. Possible scores for the fourteen EORTC domains each range between […]. For six domains (physical, emotional, role, social, and cognitive functioning and global score), a higher score means a better health-related QoL. These six scores were transformed to weights by dividing the patient-reported scores by 100. For the remaining eight EORTC domains, a higher score indicates worse symptoms (a worse health-related QoL). These domains are pain, fatigue, nausea and vomiting, appetite loss, […], sleep disturbance, diarrhea, and constipation. These eight scores were converted to weight adjustments by dividing them by 100 and subtracting the result from the integer 1 to provide consistent directionality of response. […] Each patient's health-related QATTP was computed as the […] of the health-related QoL weights and the duration for which that patient experienced that health-related QoL. If a patient experienced a clinical event between two health-related QoL assessments, the set of health-related QoL domain scores immediately prior to the event were carried forward to the time of the clinical event. The mean and median health-related QATTP outcomes were then estimated using Kaplan-Meier product limit methodology (Journal of the American Statistical Association, vol.53, 1958, pp 457-481). The area under a Kaplan-Meier survival curve conveys an estimated mean health-related QATTP. This analysis was applied to both intent-to-treat (ITT) and per protocol population data. All health-related QATTP comparisons between atrasentan and placebo treatment groups were based on log-rang test statistical significance at an α of 0.05. Results of the Kaplan-Meier product limit survival method analysis are reported in Table 2 (Intent to Treat) and Table 3 (Per Protocol Population). Mean and median health-related QATTP are shown by treatment arm. Log-rank tests comparing the differences between treatment groups are also reported.

[2] = system: patients having hormone refractory prostate cancer (HRPCa); assay: Area under the Curve (AUC) analysis of health-related QoL domain scores, one year follow-up
Excerpt: The Kaplan-Meier product limit method can provide biased results if study data are obtained under certain conditions such as staggered entry of subjects into the study and/or incomplete follow-up (Biometrics. 1989; 5:781-795). Thus, a second study was implemented to verify that the conclusions derived from the Kaplan-Meier would remain robust to the length of follow-up. The assumption was that all patients were followed for one year. Patients who discontinued from the study prior to one year of observation had their last observation for all health-related QoL domains carried forward through the remainder of the year. Similarly, patients who had not completed one year of observation had their health-related QoL data carried forward through one year. If the patient experienced a clinical event within the one year period, the last observation was not carried forward. The Area under the Curve (AUC) value for each domain was computed by multiplying the health-related QoL domain score by the respective duration of that score. Finally, AUC values were aggregated across all subjects within each respective treatment group (atrasentan (10 mg), atrasentan (2.5 mg), and placebo). Aggregated AUC values for each domain were compared for differences between treatment groups using a t-test.

[3] = system: patients having hormone refractory prostate cancer (HRPCa); assay: Time to disease progression, PSA progression and markers of bone metabolism
Method: Patients received treatment with either 10 mg (N=89) or 2.5 mg (N=95) of atrasentan or placebo (N=104) until experiencing a clinical event indicative of disease progression as defined by palliative opiate treatment of new bone or visceral pain, palliative radiation treatment of new bone pain, or new tumor growth symptoms requiring intervention or treatment with chemotherapy.

[4] = At. 10 mg, adjusted by FACT Functional Well Being, Intent to Treat
[5] = At. 10 mg, adjusted by FACT Physical Well Being, Per Protocol
[6] = 10 mg and 2.5 mg, Per Protocol subjects

SMILES: CCCCN(CCCC)C(=O)CN1C[C@H](c2ccc3c(c2)OCO3)[C@@H](C(=O)O)[C@@H]1c1ccc(OC)cc1 [atrasentan, (2R,3R,4S)-2-(4-methoxyphenyl)-4-(1,3-benzodioxol-5-yl)-1-(N,N-di(n-butyl)aminocarbonylmethyl)pyrrolidine-3-carboxylic]
- mean health-related QATTP vs placebo ([1]; 2.5 mg, per protocol): longer
- log rank test of health-related QATTP vs placebo ([1]; 2.5 mg, per protocol, all QoL domains except dyspnea and functional well-being): statistically significant
- mean and median health-related QATTP, atrasentan treatment groups vs placebo ([1]; 10 mg and 2.5 mg, intent-to-treat population): no statistically significant differences
- health-related QATTP, difference between the atrasentan treatment groups ([1]; intent-to-treat population): no statistically significant differences
- health-related QATTP, difference between the atrasentan treatment groups ([1]; per protocol, any QoL domain): no statistical differences
- health-related QATTP trend vs placebo ([1]; 10 mg, per protocol, dyspnea, global score, emotional well-being, social well-being, p<0.10): trend favored
- weighted health-related QATTP vs placebo group ([1]; 10 mg, per protocol, p<0.05, all QoL domains except dyspnea, global score, emotional, social and functional well-being): significantly longer
- Health-Related QATTP Mean ([1]; At. 2.5 mg, adjusted by EORTC Cognitive Functioning, Intent to Treat): 180 days
- Health-Related QATTP Mean ([1]; At. 2.5 mg, adjusted by EORTC Cognitive Functioning, Per Protocol): 190 days
- Health-Related QATTP Mean ([1]; At. 2.5 mg, adjusted by EORTC Constipation, Intent to Treat): 180 days
- Health-Related QATTP Mean ([1]; At. 2.5 mg, adjusted by EORTC Constipation, Per Protocol): 190 days
- Health-Related QATTP Mean ([1]; At. 2.5 mg, adjusted by EORTC Dyspnea, Per Protocol): 180 days
- Health-Related QATTP Mean ([1]; At. 2.5 mg, adjusted by FACT Emotional Well Being, Intent to Treat): 180 days
- Health-Related QATTP Mean ([1]; At. 2.5 mg, adjusted by FACT Social/Family Well Being, Intent to Treat): 160 days
- Health-Related QATTP Mean ([1]; At. 2.5 mg, adjusted by FACT-G, Per Protocol): 180 days
- Health-Related QATTP Mean ([1]; At. 2.5 mg, adjusted by FACT-P, Per Protocol): 160 days
- Health-Related QATTP Mean ([1]; At. 10 mg, adjusted by EORTC Role Functioning, Intent to Treat): 180 days
- Health-Related QATTP Mean ([1]; At. 10 mg, adjusted by EORTC Social Functioning, Intent to Treat): 190 days
- Health-Related QATTP Mean [1, 4]: 140 days
- Health-Related QATTP Median [1, 4]: 98 days
- Health-Related QATTP Mean [1, 5]: 190 days
- Health-Related QATTP Median [1, 5]: 130 days
- Health-Related QATTP Mean ([1]; At. 10 mg, adjusted by FACT-G, Intent to Treat): 160 days
- Health-Related QATTP Median ([1]; At. 10 mg, adjusted by FACT-G, Per Protocol): 130 days
- health-related QATTP compared to placebo ([1]; both 10 mg and 2.5 mg arms, per protocol analysis): improved; also recorded: longer
- AUC results vs placebo group ([2]; 2.5 mg, all domains except dyspnea, social/family, functional well-being and FACT-P): significantly improved
- AUC of health-related QoL domain scores, atrasentan treatment vs placebo ([2]; Intent to Treat population): no statistical differences
- AUC of health-related QoL domain scores, 10 mg vs 2.5 mg groups ([2]; per-protocol population): not statistically differentiable
- AUC of health-related QoL domain scores, atrasentan treatment groups vs placebo ([2]; per-protocol population, every QoL domain score): strong trends in favor
- AUC for health-related QoL domain scores vs placebo ([2]; physical functioning, social functioning and pain domains): significantly (p<0.05) longer
- time to disease progression compared to placebo ([3]; 10 mg and 2.5 mg, Per Protocol analysis): delayed
- markers of bone metabolism [3, 6]: attenuated increases
- time to prostate-specific antigen (PSA) progression [3, 6]: delayed
- time to disease or PSA progression across treatment groups ([3]; intent-to-treat population): no statistically significant differences

Reference: patent US20030022811A1, “Favorable modulation of health-related quality of life and health-related quality-adjusted time-to-progression of disease in patients with prostate cancer” (priority 2001, published 2003)
